Where two headings read alike, the source gives them in different places. Square brackets hold non-standard residues; d marks the D form. Peptide text beside a SMILES is read from it. * marks the point of attachment. Cys(free,S-linked) = N[C@@H](CS*)C(=O)O; d2Thi = N[C@H](Cc1cccs1)C(=O)O; dAbu = CC[C@@H](N)C(=O)O
Columns and labels:
[1] = system: rat peritoneal mast cells; assay: In vitro histamine release in rat peritoneal mast cells (histamine ELISA); assay type: cell-based; conditions: for Relative fold of histamine release in vitro: test compound final concentration 10 μM, 15 min at 37° C., relative to PBS buffer (1.00); for histamine release levels in rat peritoneal mast cells in vitro relative to etelcalcetide: 10 μM, comparison with etelcalcetide
Procedure, shortened: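 Rat peritoneal mast cells, washed into HBSS + 25 mM HEPES + 1 mM CaCl2 (pH 7.4), were exposed to test compounds at 10 μM final, 48/80 at 4 μg/mL or vehicle for 15 min at 37° C. Histamine released into the supernatant was quantified by ELISA.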

[2] = target: T1, human calcium-sensing receptor (CaSR) (Homo sapiens, UniProt P41180); assay: Agonist activity on human calcium-sensing receptor (IP-One HTRF in stably transfected HEK293/CaSR cells); assay type: cell-based
T1 construct: host or cells: HEK293
T1 sequence (P41180 20-1078): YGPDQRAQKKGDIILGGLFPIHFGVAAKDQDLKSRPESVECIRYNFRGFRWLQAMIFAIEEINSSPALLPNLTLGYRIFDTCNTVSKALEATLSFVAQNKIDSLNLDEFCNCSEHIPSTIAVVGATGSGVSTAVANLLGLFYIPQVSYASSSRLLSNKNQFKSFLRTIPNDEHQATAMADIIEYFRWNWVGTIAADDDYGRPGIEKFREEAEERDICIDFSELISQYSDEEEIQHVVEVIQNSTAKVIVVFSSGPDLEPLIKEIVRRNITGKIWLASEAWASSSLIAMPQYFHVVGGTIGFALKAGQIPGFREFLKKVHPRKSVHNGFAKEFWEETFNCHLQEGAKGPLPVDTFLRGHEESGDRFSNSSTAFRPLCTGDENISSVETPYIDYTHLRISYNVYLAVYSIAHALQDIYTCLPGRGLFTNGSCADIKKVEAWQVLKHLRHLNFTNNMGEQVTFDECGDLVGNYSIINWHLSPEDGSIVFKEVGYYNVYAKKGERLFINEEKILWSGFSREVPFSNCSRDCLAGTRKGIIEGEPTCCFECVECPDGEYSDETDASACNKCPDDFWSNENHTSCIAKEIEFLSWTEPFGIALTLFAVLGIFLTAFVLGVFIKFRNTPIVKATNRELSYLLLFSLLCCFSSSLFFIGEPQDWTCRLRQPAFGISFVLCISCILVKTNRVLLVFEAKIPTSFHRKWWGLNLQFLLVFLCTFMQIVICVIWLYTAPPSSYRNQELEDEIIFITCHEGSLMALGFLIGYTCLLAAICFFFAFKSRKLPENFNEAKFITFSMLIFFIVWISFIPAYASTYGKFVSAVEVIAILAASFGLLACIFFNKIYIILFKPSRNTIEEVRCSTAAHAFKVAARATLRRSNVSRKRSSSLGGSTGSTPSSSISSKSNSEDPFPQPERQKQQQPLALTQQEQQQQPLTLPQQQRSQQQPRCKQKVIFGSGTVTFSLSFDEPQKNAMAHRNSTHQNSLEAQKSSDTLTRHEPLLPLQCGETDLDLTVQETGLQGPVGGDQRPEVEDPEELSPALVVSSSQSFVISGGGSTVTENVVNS
Procedure, shortened: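 HEK293 cells stably expressing CaSR stimulated 60 min at 37 °C with compounds in buffer containing 1.2 mM CaCl2, 0.5 mM MgCl2 and 50 mM LiCl. IP-One accumulation measured by HTRF (665/620 nm ratio); EC50 from four-parameter fit.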

[3] = HEK293/CaSR cells, IP-One production, 60 min at 37° C., CaCl2 1.2 mM, read-out: EC50 for calcium-sensing receptor

SMILES | Relative fold of histamine release in vitro [1] | EC50 [2, 3] | histamine release levels in rat peritoneal mast cells in vitro relative to etelcalcetide [1] | EC50 [2]
CC(=O)N[C@H](CSSC[C@H](N)C(=O)O)C(=O)N[C@H](CCCNC(=N)N)C(=O)N[C@H](CCCNC(=N)N)C(=O)N[C@H](Cc1cccs1)C(=O)N[C@H](CCCNC(=N)N)C(=O)N[C@H](C)C(=O)N[C@H](CCCNC(=N)N)C(N)=O [Compound 13, Ac-c(C)-r-r-(D-2-Thi)-r-a-r-NH2] (Ac-[dC](Cys(free,S-linked))[dR][dR][d2Thi][dR][dA][dR]-NH2) | 2.38 | 1.21 µM | – | –
CC[C@@H](NC(=O)[C@@H](CCCNC(=N)N)NC(=O)[C@@H](CCCNC(=N)N)NC(=O)[C@@H](CSSC[C@H](N)C(=O)O)NC(C)=O)C(=O)N[C@H](CCCNC(=N)N)C(=O)N[C@H](C)C(=O)N[C@H](CCCNC(=N)N)C(N)=O [Compound 17, Ac-c(C)-r-r-(D-Abu)-r-a-r-NH2] (Ac-[dC](Cys(free,S-linked))[dR][dR][dAbu][dR][dA][dR]-NH2) | 0.97 | – | reduction in histamine release levels | 6.28 µM
CC[C@@H](NC(=O)[C@@H](CCCNC(=N)N)NC(=O)[C@@H](CCCNC(=N)N)NC(=O)[C@@H](CSSC[C@H](N)C(=O)O)NC(C)=O)C(=O)N[C@H](CCCNC(=N)N)C(=O)N[C@H](CO)C(=O)N[C@H](CCCNC(=N)N)C(N)=O [Compound 31, Ac-c(C)-r-r-(D-Abu)-r-s-r-NH2] (Ac-[dC](Cys(free,S-linked))[dR][dR][dAbu][dR][dS][dR]-NH2) | 1.29 | 5.93 µM | reduction in histamine release levels | –

From patent publication US20230041996A1, “CALCIUM-SENSING RECEPTOR AGONIST COMPOUND AND APPLICATION THEREOF” (BEIJING TUO JIE BIOPHARMACEUTICAL CO. LTD., priority 2019, published 2023)
